Values belong to the molecule of their own block, whether it stands above or below them.
Key:
[1] = UPLC-MS/MS statin and metabolite concentrations in vitreous of vitrectomy patients on oral statins; type: in vivo, human
Description: The study was conducted according to the tenets of the Declaration of Helsinki, and was approved by the Institutional Review Board and Ethical committee of Helsinki University Central Hospital. Twenty patients were enrolled; fifteen with per oral statin treatment and five controls. Signed informed consent was obtained from each participant prior to the vitreous sampling. Confidentiality of the patient records was maintained when the clinical data were entered into a computer-based standardized data entry for analysis. Sixteen patients were being operated due to PDR; of these, five patients had also Tractional Retinal Detachment (TRD); two patients were operated due to RRD, one due to age-related epiretinal fibrosis (pucker), and one due to a macular hole (Supplementary Table S2). […] All vitrectomies were performed by the recruiting vitreoretinal surgeon (SL). […] The samples were collected by manual aspiration into a syringe via the vitrectomy with the cutting function activated. Sample aliquots were transferred into sterile 1.5 mL microcentrifuge tubes (Freemont, CA, USA) and immediately frozen and stored at − 70 °C until laboratory analysis. […] All reference compounds and internal standards were purchased from Toronto Research Chemicals (Toronto, Canada). Samples (100 µl) were divided into two aliquots and kept at − 80 °C prior to analysis. […] Homogenizer blocks were pre-cooled by placing them at − 20 °C. […] Supernatants (120 µl) were pipetted into analytical vials and the concentrations of the statins were measured with Ultra-high Pressure Liquid Chromatography—tandem Mass Spectrometry (UPLC-MS/MS) technique. The same pre-treatment protocol was used to prepare calibration curves and quality control samples but homogenized and filtered porcine vitreous were used as a matrix instead of human vitreous. A minimum of six calibration curve concentrations was used for quantitation of the compounds. Two parallel calibration curve sets included all eleven analytes and four deuterated internal standards. Three quality control samples in three parallel sets were used to validate the method. The linear range varied from approximately 0.004 to 10 ng/mL depending on the analyte. Limit of quantitation was set to the smallest calibration curve point of each drug. Each sample was analysed twice and the average of these values was designated as the concentration of the sample. […] For rosuvastatin, two metabolites were analysed: rosuvastatin lactone and N-desmethyl rosuvastatin lactone. Rosuvastatin D6 was used as an internal standard. The parent drug, its metabolites and internal standard were analysed from the same sample in each case. Liquid chromatography separation was carried out using a Waters Acquity UPLC instrument (Waters, MA, USA) coupled with Waters HSS T3 C18 (2.1 × 100 mm, 1.8 µm) column at 40 °C. The mobile phase consisted of 0.1% formic acid in ultrapure water (A) and 100% of LC–MS grade acetonitrile (B). […] The flow rate was set to 0.3 mL/min and injection volume 1.5 µl. After every three samples, a solvent blank was run to control for any carry over. Mass spectrometry measurements were carried out using a Waters Xevo Triple Quadruple mass spectrometer (TQ-S) equipped with an ESI source. […] The source parameters were as follows: Capillary voltage 2.8 kV, source temperature 150 °C and desolvation temperature 500 °C. Nitrogen (Aga, Helsinki, Finland) was used as a desolvation gas (800 l/h), a cone gas (150 l/h) and a nebulizer gas (7 bar). Argon (Aga, Helsinki, Finland) was used as a collision gas (0.15 mL/min). The Multiple Reaction Monitoring (MRM) mode was used for quantification. Precursor and fragment ions, as well as other optimized parameters are listed in Supplementary Table S3.

PVR rabbit model [2] = experiment: Preclinical PVR rabbit model with intravitreal simvastatin (Kawahara et al.); type: in vivo; conditions: Eq. 5; intravitreal dose 0.63 µg, dosing interval 48 h, rabbit CLivt 0.982 mL/h; study data of [16]
PVR rabbit model [3] = tested on: PVR rabbit model; parameters: method as in PMID 18599521; conditions: four intravitreal injections of 15 µM at intervals of two days; end point 28 days; ref [16]; cited from earlier work
[4] = free fraction of drug in plasma; ref summary of product characteristics document; cited from earlier work
ARPE-19 cells = experiment: LDH release assay (cell membrane integrity); type: cell-based, human; conditions: with and without LPS; Supplementary Fig. S3
Description: Cell viability was assessed by determining the amount of LDH enzyme from culture media using a commercial kit (Promega Corporation, USA) according to the manufacturer’s protocol. This assay provides information about the integrity of the plasma membranes of the cells (high LDH levels meaning cell damage). In addition, the cell viability was examined with MTT assay, as described previously. In viable cells, the mitochondrial succinate dehydrogenase enzyme can metabolize the MTT dye into formazan that absorbs light at the 550 nm wavelength.

[5] = Calculated average steady-state plasma (Eq. 1) and expected vitreal concentrations (Eq. 3); parameters: species or system human; conditions: for Calc. Cv: expected vitreal, Eq. 3; for Css,av: plasma, Eq. 1
Description: The concentrations of statins and their metabolites in the vitreous were analysed (see above) and expressed as ng/mL concentrations. These concentrations were compared to published statin concentrations in plasma. […] Maximum concentrations in plasma and the area under the concentration vs time curve values were collected. The expected average statin concentrations in plasma during multiple dose treatment were calculated for the doses that the patients received in our study (Eq. 1):1 Css,av=AUCsingledose/τ where τ is the time interval between doses. The drug concentrations in plasma (C, Cmax, Css, av) include both unbound (Cu) and protein-bound drug. The values for protein binding were obtained from the summary of drug product characteristics for each statin. The free fraction of statin in plasma was calculated based on Eq. (2):2 fu=CuC
The expected drug concentrations in the patients’ vitreous samples were calculated according to Eq. (3)3 Cv=fu×Css,av
Equation (3) assumes that the vitreal drug concentrations equilibrate with the unbound drug concentrations in plasma, because only free drug is expected to cross the blood-ocular barriers.

IL-6 = experiment: ELISA of LPS-induced IL-6 release from ARPE-19 cells; conditions: then LPS
IL-8 = experiment: ELISA of LPS-induced IL-8 release from ARPE-19 cells; conditions: 24 h prior to LPS
MCP-1 = experiment: ELISA of LPS-induced MCP-1 release from ARPE-19 cells; conditions: 24 h prior to LPS
[6] = patient 352, PDR, TDR, oral atorvastatin 20 mg
[7] = patient 355, PDR, oral atorvastatin 10 mg
[8] = patient 368, PDR, oral atorvastatin 40 mg
[9] = patient 429, RRD, oral atorvastatin 20 mg
[10] = patient 430, PDR, oral atorvastatin 20 mg
[11] = oral 40 mg/d, patients' vitreous
[12] = patient 347, PDR, TDR, oral simvastatin 40 mg
[13] = patient 370, PDR, oral simvastatin 40 mg
[14] = patient A101, PDR, TDR, oral simvastatin 40 mg
[15] = patient 397, PDR, oral rosuvastatin 20 mg
[16] = patient 412, PDR, oral rosuvastatin 20 mg

Structure (SMILES): CC(C)c1c(C(=O)Nc2ccccc2)c(-c2ccccc2)c(-c2ccc(F)cc2)n1CC[C@@H]1C[C@@H](O)CC(=O)O1 [Atv lactone, atorvastatin lactone]
Concentration in vitreous sample [1, 6]: 0.012 ng/mL
Concentration in vitreous sample [1, 7]: 0.035 ng/mL
Concentration in vitreous sample [1, 8]: 0.089 ng/mL
Concentration in vitreous sample [1, 9]: 0.016 ng/mL
Concentration in vitreous sample [1, 10]: 0.062 ng/mL

Structure (SMILES): CC(C)c1c(C(=O)Nc2ccccc2O)c(-c2ccccc2)c(-c2ccc(F)cc2)n1CCC(O)CC(O)CC(=O)O (stereo not shown) [2-OH Atv, 2-OH atorvastatin]
Concentration in vitreous sample [1, 6]: 0.047 ng/mL
Concentration in vitreous sample [1, 7]: 0.071 ng/mL
Concentration in vitreous sample [1, 8]: 0.176 ng/mL
Concentration in vitreous sample [1, 10]: 0.099 ng/mL

Structure (SMILES): CC(C)c1c(C(=O)Nc2ccc(O)cc2)c(-c2ccccc2)c(-c2ccc(F)cc2)n1CC[C@@H](O)C[C@@H](O)CC(=O)O [4-OH Atv, 4-OH atorvastatin]
Concentration in vitreous sample [1, 6]: 0.022 ng/mL
Concentration in vitreous sample [1, 7]: 0.057 ng/mL
Concentration in vitreous sample [1, 8]: 0.209 ng/mL
Concentration in vitreous sample [1, 9]: 0.022 ng/mL
Concentration in vitreous sample [1, 10]: 0.12 ng/mL

Structure (SMILES): CC(C)c1c(C(=O)Nc2ccccc2O)c(-c2ccccc2)c(-c2ccc(F)cc2)n1CCC1CC(O)CC(=O)O1 (stereo not shown) [2-OH Atv lactone, 2-OH atorvastatin lactone]
Concentration in vitreous sample [1, 6]: 0.023 ng/mL
Concentration in vitreous sample [1, 7]: 0.029 ng/mL
Concentration in vitreous sample [1, 8]: 0.063 ng/mL
Concentration in vitreous sample [1, 9]: 0.023 ng/mL
Concentration in vitreous sample [1, 10]: 0.032 ng/mL

Structure (SMILES): CC(C)c1nc(NS(C)(=O)=O)nc(-c2ccc(F)cc2)c1/C=C/[C@@H](O)C[C@@H](O)CC(=O)O [N-desmethyl Rsv, n-desmethyl rosuvastatin]
Concentration in vitreous sample ([1]; patient 371, PDR, dose 0* (control without reported statin treatment)): 0.019 ng/mL
Concentration in vitreous sample [1, 15]: 0.013 ng/mL
Concentration in vitreous sample [1, 16]: 0.026 ng/mL

Structure (SMILES): CC(C)c1nc(N(C)S(C)(=O)=O)nc(-c2ccc(F)cc2)c1/C=C/[C@@H]1C[C@@H](O)CC(=O)O1 [Rsv lactone, rosuvastatin lactone]
Concentration in vitreous sample [1, 15]: 0.011 ng/mL
Concentration in vitreous sample [1, 16]: 0.025 ng/mL

Structure (SMILES): CC(C)c1c(C(=O)Nc2ccc(O)cc2)c(-c2ccccc2)c(-c2ccc(F)cc2)n1CCC1CC(O)CC(=O)O1 (stereo not shown) [4-OH Atv lactone, 4-OH atorvastatin lactone]
Concentration in vitreous sample [1, 7]: 0.012 ng/mL
Concentration in vitreous sample [1, 8]: 0.039 ng/mL
Concentration in vitreous sample [1, 9]: 0.008 ng/mL
Concentration in vitreous sample [1, 10]: 0.017 ng/mL

Further lines, with some results ahead:

Measured Cv Average [1, 11]: 0.048 ng/mL
Measured Cv Range (lower) [1, 11]: 0.027 ng/mL
Measured Cv Range (upper) [1, 11]: 0.073 ng/mL
Concentration in vitreous sample [1, 12]: 0.073 ng/mL
Concentration in vitreous sample [1, 13]: 0.044 ng/mL
Concentration in vitreous sample [1, 14]: 0.027 ng/mL
therapeutic Css, average in PVR rabbit model (PVR rabbit model [2]): 13.3 ng/mL
Structure (SMILES): CCC(C)(C)C(=O)O[C@H]1C[C@@H](C)C=C2C=C[C@H](C)[C@H](CC[C@@H]3C[C@@H](O)CC(=O)O3)[C@H]21 [Simvastatin]
effect in preclinical PVR rabbit model (PVR rabbit model [3]): Clear beneficial effects

Calc. Cv ([5]; 10 mg/d, India study [22]): 0.046 ng/mL
Calc. Cv ([5]; 10 mg/d, Jordan study [21]): 0.024 ng/mL
Calc. Cv ([5]; 10 mg/d, Turkey study [23]): 0.098 ng/mL
Calc. Cv ([5]; 20 mg/d, China study [25]): 0.037 ng/mL
Calc. Cv ([5]; 20 mg/d, UK study [26]): 0.153 ng/mL
Calc. Cv ([5]; 20 mg/d, USA study [24]): 0.049 ng/mL
Calc. Cv ([5]; 40 mg/d, Finland study [28]): 0.045 ng/mL
Calc. Cv ([5]; 40 mg/d, Finland study [29]): 0.051 ng/mL
Calc. Cv ([5]; 40 mg/d, USA study [27]): 0.082 ng/mL
Css,av ([5]; 10 mg/d, Jordan study [21]): 0.49 ng/mL
Css,av ([5]; 20 mg/d, China study [25]): 1.85 ng/mL
Css,av ([5]; 20 mg/d, UK study [26]): 7.63 ng/mL
Css,av ([5]; 40 mg/d, Finland study [28]): 2.26 ng/mL
Css,av ([5]; 40 mg/d, Finland study [29]): 2.56 ng/mL
Css,av ([5]; 40 mg/d, USA study [27]): 4.11 ng/mL
Structure (SMILES): CC(C)c1c(C(=O)Nc2ccccc2)c(-c2ccccc2)c(-c2ccc(F)cc2)n1CC[C@@H](O)C[C@@H](O)CC(=O)O [Atorvastatin]
Tolerance by ARPE-19 cells (LDH and MTT) (ARPE-19 cells): well tolerated
times lower secretion of IL-6 compared to the solvent control (IL-6; 5 µM pre-treatment for 24 h): 1.5 times
times lower secretion of IL-6 compared to the solvent control (IL-6; 10 µM pre-treatment for 24 h): 1.6 times
LPS-induced release of IL-8 (IL-8; 5 µM): reduced
LPS-induced release of IL-8 (IL-8; 10 µM): reduced
LPS-induced release of MCP-1 (MCP-1; 5 µM): reduced
LPS-induced release of MCP-1 (MCP-1; 10 µM): reduced

Concentration in vitreous sample [1, 12]: 0.039 ng/mL
Concentration in vitreous sample [1, 13]: 0.019 ng/mL
Concentration in vitreous sample [1, 14]: 0.006 ng/mL
Structure (SMILES): CCC(C)(C)C(=O)O[C@H]1C[C@@H](C)C=C2C=C[C@H](C)[C@H](CC[C@@H](O)C[C@@H](O)CC(=O)O)[C@H]21 [Sim acid, simvastatin acid]
